Source: BindingDB's records for doi:10.1016/j.ejmech.2020.113121 (Virginia Tech, 2021)

Assay: Inhibition of recombinant human Sphk2 expressed in yeast strain KYA1 assessed as increase in yeast growth measured after 24 hrs

EC50: 170 nM
Structure (SMILES): CCCCCCCCCn1ccc2cc(-c3noc([C@@H]4CCCN4C(=N)N)n3)ccc21
